# Test results as given in patent US11591604B2, “Gene expression in Bacteroides” (Massachusetts Institute of Technology, priority 2015, dated 2023).
# Tested on: NanoLuc
# Assay: NanoLuc luciferase reporter expression from constitutive promoters and RBSs integrated with pNBU2
# Assay type: cell-based, B. thetaiotaomicron
# Details: RBS combined with promoter PBT1311, NanoLuc reporter, three biological replicates
# Text: FIGS. 1A-1G. Genetic parts to control expression in B. thetaiotaomicron. (FIG. 1A) The ranges of gene expression are shown for the different gene regulation systems provided herein. (FIG. 1B) IntN2 catalyzes stable integration of pNBU2-based expression constructs into one of two attBT2 sites in the B. thetaiotaomicron genome. The two attBT2 sites (attBT2-1 at nucleotide (nt) 6,217,227 and attBT2-2 at nt 6,138,320) are in the 3′ ends of tRNA^Ser genes (BT_t71 and BT_t70, respectively). (FIG. 1C) Constitutive promoters and ribosome binding sites for the construction of gene expression libraries. The putative −33 and −7 regions of the PBT1311 promoter, the Shine-Delgarno sequence, and the start codon are indicated by black boxes. Numbers below the black boxes represent nucleotide locations relative the PBT1311 transcription start site. The 26 nt sequences introduced in the PAM promoters are shown (see also FIGS. 6A-6B). Numbers at the edges of the boxes indicate the PBT1311 nucleotides replaced or the insertion site within the promoter. The location of residues randomized in the rpiL* RBS library are indicated with gray arrows (for library A: nt −14, −13, −12; for library B: nt −21, −18, −15; and for library C: nt −17, −16, −11; nt numbering is relative to the translation start site). (FIG. 1D) Activity was measured for a set of constitutive promoters and their cognate RBSs. Furthermore, a set of constitutive promoters (PBT1311, PAM1, PAM2, PAM3, PAM4) was combined with RBSs of varying strengths. Gene expression was measured using a luciferase reporter (NanoLuc). (FIG. 1E) Three large RBS libraries were constructed and combined with promoter PBT1311 to span 10^3-fold in gene expression. For reference, the parent rpiL* RBS is indicated with a black arrow. For D and E, error bars represent the standard deviation of three independent biological replicates made on separate days. (FIG. 1F) The strength of each RBS was compared to the predicted free energy of folding for the mRNA (ΔGfold,). (FIG. 1G) Strong (SEQ ID NO: 210) and weak (SEQ ID NO: 211) consensus sequences for the rpiL* −21 to −11 RBS region targeted by mutagenesis (residue locations are stated relative to the translation start site) are provided. Frequency logos were generated for the 11 strongest and 11 weakest RBSs by comparing the frequency of each nucleotide at each position in that group with the frequency of that nucleotide in that position in the full library. Position −20 and −19 were not randomized and are thus are not shown in the frequency logos.
# All genetic parts in this study were characterized using the integration vector pNBU2 to ensure genetic stability of the constructs (FIG. 1B). The pNBU2 plasmid encodes the intN2 tyrosine integrase, which mediates sequence-specific recombination between the attN site of pNBU2 and one of two attBT sites located in the 3′ ends of the two tRNA^Ser genes, BT_t70 and BT_t71, on the B. thetaiotaomicron chromosome (FIG. 1B). Insertion of the pNBU2 plasmid inactivates the tRNA^Ser gene, and simultaneous insertion into both BT_t70 and BT_t71 is unlikely due to the essentiality of tRNA^Ser. pNBU2-based vectors have been used for single-copy complementation in B. thetaiotaomicron in in vitro studies (Koropatkin N M et al. Nat. Rev. Microbiol. 10:323-35, 2012) and in vivo mouse models (Martens E C et al. Cell Host Microbe 4:447-57, 2008).
# B. thetaiotaomicron genetic parts were characterized with NanoLuc luciferase (Hall M P et al. ACS Chem. Biol. 7:1848-1857, 2012), which is a small (19 kDa) modified shrimp luciferase. Efforts to use members of the green fluorescent protein family and a FMN-based fluorescent reporter were not successful. NanoLuc oxidizes the exogenously-added substrate furimazine to produce glow-type bioluminescence (Emax=460 nm) with a signal half-life of 2 hr. […]
row,Substance,Average Luminescence (RLU/CFU)
1,"B12: RBS, SEQ ID NO: 22 (DNA TCCCGCATTTTAAAATAAAATAAATAATATATTTAATTAAACGAAT; chemistry not fully specified)",0.03108
2,"B13: RBS, SEQ ID NO: 25 (DNA TCCCGCATTTTAAAATAAAATAAATGATTTAATTAATTAAACGAAT; chemistry not fully specified)",0.02746
3,"B14: RBS, SEQ ID NO: 26 (DNA TCCCGCATTTTAAAATAAAATAAATTATCTATTTAATTAAACGAAT; chemistry not fully specified)",0.02715
4,"B15: RBS, SEQ ID NO: 27 (DNA TCCCGCATTTTAAAATAAAATAAATGATTTACTTAATTAAACGAAT; chemistry not fully specified)",0.02695
5,"B16: RBS, SEQ ID NO: 28 (DNA TCCCGCATTTTAAAATAAAATAAATTATATACTTAATTAAACGAAT; chemistry not fully specified)",0.02683
6,"B17: RBS, SEQ ID NO: 30 (DNA TCCCGCATTTTAAAATAAAATAAATAATTTAGTTAATTAAACGAAT; chemistry not fully specified)",0.0259
7,"B18: RBS, SEQ ID NO: 35 (DNA TCCCGCATTTTAAAATAAAATAAATAATGTAGTTAATTAAACGAAT; chemistry not fully specified)",0.02291
8,"B19: RBS, SEQ ID NO: 42 (DNA TCCCGCATTTTAAAATAAAATAAATTATGTATTTAATTAAACGAAT; chemistry not fully specified)",0.02048
9,"B20: RBS, SEQ ID NO: 52 (DNA TCCCGCATTTTAAAATAAAATAAATGATCTAATTAATTAAACGAAT; chemistry not fully specified)",0.01676
10,"B21: RBS, SEQ ID NO: 53 (DNA TCCCGCATTTTAAAATAAAATAAATGATATATTTAATTAAACGAAT; chemistry not fully specified)",0.01613
11,"B22: RBS, SEQ ID NO: 55 (DNA TCCCGCATTTTAAAATAAAATAAATCATGTAATTAATTAAACGAAT; chemistry not fully specified)",0.01599
12,"B23: RBS, SEQ ID NO: 61 (DNA TCCCGCATTTTAAAATAAAATAAATAATCTATTTAATTAAACGAAT; chemistry not fully specified)",0.01464
13,"B24: RBS, SEQ ID NO: 62 (DNA TCCCGCATTTTAAAATAAAATAAATCATTTATTTAATTAAACGAAT; chemistry not fully specified)",0.01427
14,"B25: RBS, SEQ ID NO: 63 (DNA TCCCGCATTTTAAAATAAAATAAATGATTTAGTTAATTAAACGAAT; chemistry not fully specified)",0.01415
15,"B26: RBS, SEQ ID NO: 68 (DNA TCCCGCATTTTAAAATAAAATAAATTATTTAGTTAATTAAACGAAT; chemistry not fully specified)",0.01271
16,"B27: RBS, SEQ ID NO: 74 (DNA TCCCGCATTTTAAAATAAAATAAATGATATAGTTAATTAAACGAAT; chemistry not fully specified)",0.009815
17,"B28: RBS, SEQ ID NO: 77 (DNA TCCCGCATTTTAAAATAAAATAAATTATGTAGTTAATTAAACGAAT; chemistry not fully specified)",0.009593
18,"B29: RBS, SEQ ID NO: 80 (DNA TCCCGCATTTTAAAATAAAATAAATTATATAGTTAATTAAACGAAT; chemistry not fully specified)",0.009478

row,Substance,Average Luminescence (RLU/CFU)
1,"B30: RBS, SEQ ID NO: 82 (DNA TCCCGCATTTTAAAATAAAATAAATGATGTATTTAATTAAACGAAT; chemistry not fully specified)",0.009276
2,"B31: RBS, SEQ ID NO: 85 (DNA TCCCGCATTTTAAAATAAAATAAATGATCTAGTTAATTAAACGAAT; chemistry not fully specified)",0.008534
3,"B32: RBS, SEQ ID NO: 92 (DNA TCCCGCATTTTAAAATAAAATAAATGATGTAGTTAATTAAACGAAT; chemistry not fully specified)",0.007096
4,"B33: RBS, SEQ ID NO: 97 (DNA TCCCGCATTTTAAAATAAAATAAATCATGTATTTAATTAAACGAAT; chemistry not fully specified)",0.006272
5,"B34: RBS, SEQ ID NO: 98 (DNA TCCCGCATTTTAAAATAAAATAAATCATCTATTTAATTAAACGAAT; chemistry not fully specified)",0.00584
6,"B35: RBS, SEQ ID NO: 105 (DNA TCCCGCATTTTAAAATAAAATAAATCATGTACTTAATTAAACGAAT; chemistry not fully specified)",0.005272
7,"B36: RBS, SEQ ID NO: 112 (DNA TCCCGCATTTTAAAATAAAATAAATCATATAATTAATTAAACGAAT; chemistry not fully specified)",0.004282
8,"B37: RBS, SEQ ID NO: 121 (DNA TCCCGCATTTTAAAATAAAATAAATCATATATTTAATTAAACGAAT; chemistry not fully specified)",0.002567
9,"B38: RBS, SEQ ID NO: 127 (DNA TCCCGCATTTTAAAATAAAATAAATCATTTAGTTAATTAAACGAAT; chemistry not fully specified)",0.001793
10,"B39: RBS, SEQ ID NO: 133 (DNA TCCCGCATTTTAAAATAAAATAAATCATCTAGTTAATTAAACGAAT; chemistry not fully specified)",0.001255
11,"B40: RBS, SEQ ID NO: 134 (DNA TCCCGCATTTTAAAATAAAATAAATCATGTAGTTAATTAAACGAAT; chemistry not fully specified)",0.001108
12,"B41: RBS, SEQ ID NO: 139 (DNA TCCCGCATTTTAAAATAAAATAAATCATATAGTTAATTAAACGAAT; chemistry not fully specified)",0.0001307
13,"C1: RBS, SEQ ID NO: 11 (DNA TCCCGCATTTTAAAATAAAATAAATTATTGATTTAGTTAAACGAAT; chemistry not fully specified)",0.04468
14,"C2: RBS, SEQ ID NO: 13 (DNA TCCCGCATTTTAAAATAAAATAAATTATTACTTTAGTTAAACGAAT; chemistry not fully specified)",0.04331
15,"C3: RBS, SEQ ID NO: 14 (DNA TCCCGCATTTTAAAATAAAATAAATTATTACTTTAATTAAACGAAT; chemistry not fully specified)",0.03677
16,"C4: RBS, SEQ ID NO: 16 (DNA TCCCGCATTTTAAAATAAAATAAATTATTTATTTAGTTAAACGAAT; chemistry not fully specified)",0.03516
17,"C5: RBS, SEQ ID NO: 17 (DNA TCCCGCATTTTAAAATAAAATAAATTATTCATTTAATTAAACGAAT; chemistry not fully specified)",0.03327
18,"C6: RBS, SEQ ID NO: 19 (DNA TCCCGCATTTTAAAATAAAATAAATTATTAATTTAGTTAAACGAAT; chemistry not fully specified)",0.03263
